Values quoted from earlier work as cited in US11058674B2 (priority 2016, dated 2021).
Where two headings read alike, the source gives them in different places.

Assays:
mouse [1] = system: mouse; design: key: ∘: Effective; conditions: cocaine addiction
mouse [2] = system: mouse; design: key to Conditioned place preference Relapse: ∘: Effective; conditions: for CPP acquisition caused by cocaine / CPP expression caused by cocaine: N/OFQ: intraventricular administration to a mouse
[3] = design: key: ∘: Effective; conditions: alcohol addiction
rat = system: rat; design: key to Self-administration Seeking behavior: ∘: Effective; x: Ineffective
[4] = design: key: ∘: Effective; conditions: alcohol addiction; remark: listed apart in the source
mouse [5] = system: mouse; design: key: ∘: Effective; x: Ineffective; conditions: cocaine addiction
[6] = believed, from literature

| Molecule | CPP acquisition caused by cocaine (mouse [2]) | CPP expression caused by cocaine (mouse [2]) | Self-administration Seeking behavior [3] | Self-administration Uptake behavior [3] | Conditioned place preference Acquisition [4] | Conditioned place preference Expression [4] | Conditioned place preference Relapse [4] | Conditioned place preference Acquisition (mouse [5]) | other results |
| --- | --- | --- | --- | --- | --- | --- | --- | --- | --- |
| N/OFQ: Endogenous ligands of the NOP receptor, named nociceptin and orphanin FQ | blocks | blocks | ∘ ^9) | ∘ ^9) | ∘ ^13) | ∘ ^13) | ∘ ^13) | – | Conditioned place preference Acquisition (mouse [1]): ∘ ^17); Conditioned place preference Expression (mouse [1]): ∘ ^18); Self-administration Seeking behavior (rat; cocaine addiction): x ^16); cocaine seeking behavior induced by a stress after the extinction of the cocaine self-administration (rat; rat): does not suppress |
| CNC(=O)Cn1c(=O)n(C2CCN([C@@H]3Cc4cccc5cccc3c45)CC2)c2ccccc21.Cl.O [MT-7716, (R)-2-{3-[1-(acenaphthen-1-yl)piperidin-4-yl]-2-oxo-2,3-dihydro-1H-benzimidazol-1-yl}-N-methylacetamide hydrochloride monohydrate] | – | – | ∘ ^12) | ∘ ^11) | – | – | – | – | – |
| Cl.O=C1NCN(c2ccccc2)C12CCN([C@H]1CC[C@@H]3CCCc4cccc1c43)CC2 [Ro64-6198, (1S,3aS)-8-(2,3,3a,4,5,6-hexahydro-1H-phenalen-1-yl)-1-phenyl-1,3,8-triaza-spiro[4.5]decan-4-one hydrochloride] | – | – | – | ∘ ^10) | ∘ ^13) | ∘ ^13) | ∘ ^13) | – | – |
| O=C1Cc2ccccc2N1C1CCN(C2CCC3CCCc4cccc2c43)CC1 (centres unmarked) [AT-202, 1-[1-(2,3,3a,4,5,6-hexahydro-1H-phenalen-1-yl)piperidin-4-yl]-indolin-2-one] | does not affect | – | – | – | – | – | – | x ^20) | relapse of CPP caused by a stress (mouse [2]; cocaine CPP): suppresses; Conditioned place preference Relapse (mouse [2]; cocaine addiction): ∘ ^20) |
| Cc1ccccc1C(c1ccccc1C)N1C2CCC1CC(O)(c1ccccc1)C2 (centres unmarked) [SCH221510] | – | – | – | – | – | – | – | – | migration to brain [6]: low migration to brain |
| Cl.O=C1NCN(c2ccccc2)C12CCN(C1Cc3cccc4cccc1c34)CC2 (centres unmarked) [Ro65-6570, 8-acenaphthen-1-yl-phenyl-1,3,8-triaza-spiro[4.5]decan-4-one hydrochloride] | does not affect | does not affect | – | – | – | – | – | x ^19) | Conditioned place preference Expression (mouse [5]): x ^18) |
